# Tested on: IL-6
# Assay: Human monocyte assay, LPS-stimulated IL-6
# Assay type: cell-based
# Settings: Monocyte; human monocytes, 1 μg/ml LPS, 5 hours
# Description: The assay was designed as in the reference, Physiol.
# Peripheral blood mononuclear cells (hPBMC) were harvested from human blood and suspended in RPMI 1640 culture medium containing 10% FCS, 100 U/mL penicillin and […] streptomycin (assay medium). Monocytes in the hPBMCs were counted using a Coulter Counter following which the cells were resuspended at 2×10^5 monocytes/mL. A cell suspension containing 2×10^4 monocytes was aliquoted per well of a 96-well plate. Subsequently, the hPBMCs were incubated for 4-5 hours at 37° C., 5% CO2 (During the incubation, the monocytes adhered to the bottom of 96-well plastic culture plate). Following the incubation, the non-adherent lymphocytes were washed with assay medium and the adherent monocytes re-fed with assay medium. After a 48-hour incubation period (37° C., 5% CO2), monocytes were pretreated with various concentrations of representative compounds of present invention (refer to table 6 and 7) (prepared in DMSO) or vehicle (0.5% DMSO) for 30 minutes and stimulated with 1 μg/ml LPS (Escherchia coli 0111:B4, Sigma Chemical Co., St. Louis, Mo.). The incubation was continued for 5 hours at 37° C., 5% CO2. Supernatants were harvested, assayed for IL-6 and TNF-α by ELISA as described by the manufacturer (BD Biosciences, USA). Dexamethasone (10 μM) was used as standard for this assay. […] Biological results for both IL-6 and TNFα are indicated in Table 6 and Table 7 respectively.
row,IC50,Structure (SMILES)
1,0.001 to 5 µM,"CN(/N=C/c1cnc2ccc(-c3cccnc3)cn12)S(=O)(=O)c1ccc(F)c(F)c1F [Example 34, (E)-2,3,4-Trifluoro-N-methyl-N′-((6-(pyridin-3-yl)imidazo[1,2-a]pyridin-3-yl)methylene)benzenesulfonohydrazide]"
2,0.001 to 5 µM,"CN(/N=C/c1cnc2ccc(-c3cccnc3)cn12)S(=O)(=O)c1cc(F)c(Br)cc1F [Example 35, (E)-4-bromo-2,5-difluoro-N-methyl-N′-((6-(pyridin-3-yl)imidazo[1,2-a]pyridin-3-yl)methylene)benzenesulfonohydrazide]"
3,≥ 5 µM,"CN(/N=C/c1cnc2ccc(-c3cccnc3)cn12)S(=O)(=O)c1ccc(F)cc1Br [Example 36, (E)-2-bromo-4-fluoro-N-methyl-N′-((6-(pyridin-3-yl)imidazo[1,2-a]pyridin-3-yl)methylene)benzenesulfonohydrazide]"
4,0.001 to 5 µM,"CN(/N=C/c1cnc2ccc(-c3cccnc3)cn12)S(=O)(=O)c1cccc(Cl)c1 [Example 39, (E)-3-chloro-N-methyl-N′-((6-(pyridin-3-yl)imidazo[1,2-a]pyridin-3-yl)methylene)benzenesulfonohydrazide]"
5,0.001 to 5 µM,"CN(/N=C/c1cnc2ccc(-c3cccnc3)cn12)S(=O)(=O)c1ccc(C(F)(F)F)cc1Cl [Example 40, (E)-2-chloro-N-methyl-N′-((6-(pyridin-3-yl)imidazo[1,2-a]pyridin-3-yl)methylene)-4-(trifluoromethyl)benzenesulfonohydrazide]"
6,0.001 to 5 µM,"CN(/N=C/c1cnc2ccc(-c3cccnc3)cn12)S(=O)(=O)c1ccc(F)cc1Cl [Example 41, (E)-2-chloro-4-fluoro-N-methyl-N′-((6-(pyridin-3-yl)imidazo[1,2-a]pyridin-3-yl)methylene) benzenesulfonohydrazide]"
7,≥ 5 µM,"Cc1nc(S(=O)(=O)N(C)/N=C/c2cnc3ccc(-c4cccnc4)cn23)cn1C [Example 42, (E)-N, 1,2-trimethyl-N′-((6-(pyridin-3-yl)imidazo[1,2-a]pyridin-3-yl)methylene)-1H-imidazole-4-sulfonohydrazide]"
8,≥ 5 µM,"Cc1cc(S(=O)(=O)N(C)/N=C/c2cnc3ccc(-c4cccnc4)cn23)c(C)cc1Cl [Example 43, (E)-4-chloro-N, 2,5-trimethyl-N′-((6-(pyridin-3-yl)imidazo[1,2-a]pyridin-3-yl)methylene) benzenesulfonohydrazide]"
9,0.001 to 5 µM,"CN(/N=C/c1cnc2ccc(-c3cccnc3)cn12)S(=O)(=O)c1cc(F)ccc1F [Example 44, (E)-2,5-difluoro-N-methyl-N′-((6-(pyridin-3-yl)imidazo[1,2-a]pyridin-3-yl)methylene) benzenesulfonohydrazide]"
10,≥ 5 µM,"CN(/N=C/c1cnc2ccc(-c3cccnc3)cn12)S(=O)(=O)c1ccc(I)cc1 [Example 46, (E)-4-Iodo-N-methyl-N′-((6-(pyridin-3-yl)imidazo[1,2-a]pyridin-3-yl)methylene)benzenesulfonohydrazide]"
11,≥ 5 µM,"CN(/N=C/c1cnc2ccc(-c3cccnc3)cn12)S(=O)(=O)c1ccc(-c2cc(C(F)(F)F)ccc2F)cc1 [Example 47, (E)-2′-Fluoro-N-methyl-N′-((6-(pyridin-3-yl)imidazo[1,2-a]pyridin-3-yl)methylene)-5′-(trifluoromethyl)biphenyl-4-sulfonohydrazide]"
12,0.001 to 5 µM,"Cc1ccc(C)c(S(=O)(=O)N(C)/N=C/c2cnc3ccc(-c4cccnc4)cn23)c1 [Example 50, (E)-N, 2,5-trimethyl-N′-((6-(pyridin-3-yl)imidazo[1,2-a]pyridin-3-yl)methylene)benzenesulfonohydrazide]"
13,0.001 to 5 µM,"CN(/N=C/c1cnc2ccc(-c3cccnc3)cn12)S(=O)(=O)c1cc(Br)ccc1Br [Example 51, (E)-2,5-dibromo-N-methyl-N′-((6-(pyridin-3-yl)imidazo[1,2-a]pyridin-3-yl)methylene) benzenesulfonohydrazide]"
14,0.001 to 5 µM,"COc1ccc(OC)c(S(=O)(=O)N(C)/N=C/c2cnc3ccc(-c4cccnc4)cn23)c1 [Example 52, (E)-2,5-dimethoxy-N-methyl-N′-((6-(pyridin-3-yl)imidazo[1,2-a]pyridin-3-yl)methylene) benzenesulfonohydrazide]"
15,0.001 to 5 µM,"COc1ccc(Cl)cc1S(=O)(=O)N(C)/N=C/c1cnc2ccc(-c3cccnc3)cn12 [Example 55, (E)-5-chloro-2-methoxy-N-methyl-N′-((6-(pyridin-3-yl)imidazo[1,2-a]pyridin-3-yl)methylene) benzenesulfonohydrazide]"
16,0.001 to 5 µM,"CN(/N=C/c1cnc2ccc(-c3cccnc3)cn12)S(=O)(=O)c1ccc(Br)cc1OC(F)(F)F [Example 56, (E)-4-bromo-N-methyl-N′-((6-(pyridin-3-yl)imidazo[1,2-a]pyridin-3-yl)methylene)-2-(trifluoromethoxy)benzenesulfonohydrazide]"
17,0.001 to 5 µM,"CN(/N=C/c1cnc2ccc(-c3cccnc3)cn12)S(=O)(=O)c1cc(C(F)(F)F)ccc1Br [Example 57, (E)-2-bromo-N-methyl-N′-((6-(pyridin-3-yl)imidazo[1,2-a]pyridin-3-yl)methylene)-5-(trifluoromethyl)benzenesulfonohydrazide]"
18,0.001 to 5 µM,"CN(/N=C/c1cnc2ccc(-c3cccnc3)cn12)S(=O)(=O)c1ccccc1[N+](=O)[O-] [Example 58, (E)-N-methyl-2-nitro-N′-((6-(pyridin-3-yl)imidazo[1,2-a]pyridin-3-yl)methylene)benzenesulfonohydrazide]"
19,0.001 to 5 µM,"CN(/N=C/c1cnc2ccc(-c3cccnc3)cn12)S(=O)(=O)c1ccccc1S(C)(=O)=O [Example 59, (E)-N-methyl-2-(methylsulfonyl)-N′-((6-(pyridin-3-yl)imidazo[1,2-a]pyridin-3-yl)methylene) benzenesulfonohydrazide]"
20,0.001 to 5 µM,"CN(/N=C/c1cnc2ccc(-c3cccnc3)cn12)S(=O)(=O)c1ccccc1Oc1ccccc1 [Example 60, (E)-N-methyl-2-phenoxy-N′-((6-(pyridin-3-yl)imidazo[1,2-a]pyridin-3-yl)methylene)benzenesulfonohydrazide]"
21,0.001 to 5 µM,"CCCCCCS(=O)(=O)N(C)/N=C/c1cnc2ccc(-c3cccnc3)cn12 [Example 61, (E)-N-methyl-N′-((6-(pyridin-3-yl)imidazo[1,2-a]pyridin-3-yl)methylene) hexane-1-sulfonohydrazide]"
22,0.001 to 5 µM,"CN(/N=C/c1cnc2ccc(-c3cccnc3)cn12)S(=O)(=O)c1cc(C(F)(F)F)ccc1N1CCOCC1 [Example 62, (E)-N-methyl-2-morpholino-N′-((6-(pyridin-3-yl)imidazo[1,2-a]pyridin-3-yl)methylene)-5-(trifluoromethyl)benzenesulfonohydrazide]"
23,0.001 to 5 µM,"Cc1ccc(S(C)(=O)=O)cc1S(=O)(=O)N(C)/N=C/c1cnc2ccc(-c3cccnc3)cn12 [Example 63, (E)-N,2-dimethyl-5-(methylsulfonyl)-N′-((6-(pyridin-3-yl)imidazo[1,2-a]pyridin-3-yl)methylene) benzenesulfonohydrazide]"
24,0.001 to 5 µM,"CN(/N=C/c1cnc2ccc(-c3cccnc3)cn12)S(=O)(=O)c1ccccc1Br [Example 64, (E)-2-bromo-N-methyl-N′-((6-(pyridin-3-yl)imidazo[1,2-a]pyridin-3-yl)methylene) benzenesulfonohydrazide]"

# From patent US8741932B2, “Imidazopyridine derivatives” (Piramal Enterprises Limited, priority 2009, dated 2014)
